# Laboratory results taken from ChEMBL document CHEMBL1133293, “Synthesis of a water-soluble prodrug of entacapone” (Bioorg Med Chem Lett, 2000).
# What was measured:
# [1] = Half life period in rabbit liver homogenate; type: ADME, tissue-based, Oryctolagus cuniculus
# [2] = Solubility at pH 1.2; type: physicochemical; settings: buffer
# [3] = Solubility at pH 7.4; type: physicochemical; settings: buffer
# [4] = Half life period t pH 7.4 at 37 degree Centigrade; type: ADME
half-life [1] [min],solubility [2] [mg/mL],solubility [3] [mg/mL],half-life [4] [days],SMILES
58,,,,CCN(CC)C(=O)C(C#N)=Cc1cc(O)c(O)c([N+](=O)[O-])c1
,30,30,92.8,CCN(CC)C(=O)/C(C#N)=C/c1cc(OP(=O)([O-])[O-])c([O-])c([N+](=O)[O-])c1.[Na+].[Na+].[Na+]
58,0.017,1.75,,CCN(CC)C(=O)/C(C#N)=C/c1cc(O)c(O)c([N+](=O)[O-])c1 [ENTACAPONE]
